Laboratory results taken from US4608373A, “Cephem compounds” (Yamanouchi Pharmaceutical Co., Ltd., priority 1982, dated 1986).
Converted amounts (≈) assume the structure as drawn. Counter-ions that a name gives are not always drawn.

Columns and labels:
Format in all cases: cell-based
Serr. marcescens IID 620 = assay: Antibacterial activity (MIC), Serr. marcescens IID 620; details: Serratia marcescens, IID620; Serr. marcescens IID 620; read-out: MIC (minimum effective inhibitory concentration)
Excerpt: (§1) Antibacterial activities (minimum effective inhibitory concentrations) of the compounds of formula I are shown in the following table in comparison with those of cefatazidime having the structure [drawing 5] and cefmenoxime having the structure [drawing 6]

Staph. aureus Terashima = assay: Antibacterial activity (MIC), Staph. aureus Terashima; details: Staphylococcus aureus, read-out: MIC (minimum effective inhibitory concentration)
Excerpt: as §1

Ent. cloacae V-8 = assay: Antibacterial activity (MIC), Ent. cloacae V-8; details: Enterobacter cloacae, V8, read-out: MIC (minimum effective inhibitory concentration)
Excerpt: as §1

[1] = system: Kleb. pneumoniae ATCC 10031; assay: Antibacterial activity (MIC), Kleb. pneumoniae ATCC 10031; details: Klebsiella pneumoniae, ATCC10031, read-out: MIC (minimum effective inhibitory concentration)
Excerpt: as §1

Ps. aeruginosa IID 5142 = assay: Antibacterial activity (MIC), Ps. aeruginosa IID 5142; details: Pseudomonas aeruginosa, IID5142, read-out: MIC (minimum effective inhibitory concentration)
Excerpt: as §1

Proteus morgani IID 602 = assay: Antibacterial activity (MIC), Proteus morgani IID 602; details: Proteus morgani IID 602; read-out: MIC (minimum effective inhibitory concentration)
Excerpt: as §1

Staph. aureus ATCC 6538P = assay: Antibacterial activity (MIC), Staph. aureus ATCC 6538P; details: Staphylococcus aureus, ATCC6538P, read-out: MIC (minimum effective inhibitory concentration)
Excerpt: as §1

[2] = system: Ps. aeruginosa NCTC 10490; assay: Antibacterial activity (MIC), Ps. aeruginosa NCTC 10490; details: Pseudomonas aeruginosa, NCTC10490, read-out: MIC (minimum effective inhibitory concentration)
Excerpt: as §1

[3] = system: Ent. aerogenes ATCC 13048 (MS-1); assay: Antibacterial activity (MIC), Ent. aerogenes ATCC 13048 (MS-1); details: Klebsiella aerogenes, ATCC13048, read-out: MIC (minimum effective inhibitory concentration)
Excerpt: as §1

Staph. aureus Smith = assay: Antibacterial activity (MIC), Staph. aureus Smith; details: Staphylococcus aureus, read-out: MIC (minimum effective inhibitory concentration)
Excerpt: as §1

E. coli Ebara = assay: Antibacterial activity (MIC), E. coli Ebara; details: Escherichia coli; E. coli Ebara; read-out: MIC (minimum effective inhibitory concentration)
Excerpt: as §1

MIC (Serr. marcescens IID 620) [µg/mL]	MIC (Staph. aureus Terashima) [µg/mL]	MIC (Ent. cloacae V-8) [µg/mL]	MIC [1] [µg/mL]	MIC (Ps. aeruginosa IID 5142) [µg/mL]	MIC (Proteus morgani IID 602) [µg/mL]	MIC (Staph. aureus ATCC 6538P) [µg/mL]	MIC [2] [µg/mL]	MIC [3] [µg/mL]	MIC (Staph. aureus Smith) [µg/mL]	MIC (E. coli Ebara) [µg/mL]	Structure (SMILES)
0.39	12.5	6.25	0.39	25	1.56	6.25	1.56	3.13	6.25	12.5	Nc1nc(CO/N=C(\C(=O)NC2C(=O)N3C(C(=O)[O-])=C(C[n+]4cccc(S(=O)(=O)O)c4)CSC23)c2csc(N)n2)cs1 (stereo not drawn) [Example 17, (Z)-7-{α-(2-amino-4-thiazolyl)-α-[(2-amino-4-thiazolyl)methoxyimino]acetamido}-3-(3-sulfonate-1-pyridiniomethyl)-3-cephem-4-carboxylate mono-sodium salt]
0.39 (≈ 0.633 µM)	1.56 (≈ 2.53 µM)	3.13 (≈ 5.08 µM)	≤ 0.2	6.25 (≈ 10.2 µM)	0.78 (≈ 1.27 µM)	0.78 (≈ 1.27 µM)	0.39 (≈ 0.633 µM)	1.56 (≈ 2.53 µM)	0.78 (≈ 1.27 µM)	0.78 (≈ 1.27 µM)	Nc1nc(CO/N=C(\C(=O)NC2C(=O)N3C(C(=O)[O-])=C(C[n+]4cccc(NC=O)c4)CS[C@H]23)c2csc(N)n2)cs1 (stereo partly drawn) [Example 18, (Z)-7-{α-(2-amino-4-thiazolyl)-α-[(2-amino-4-thiazolyl)methoxyimino]acetamido}-3-(3-formamido-1-pyridiniomethyl)-3-cephem-4-carboxylate]
≤ 0.2	0.78 (≈ 1.33 µM)	3.13 (≈ 5.33 µM)	≤ 0.2	6.25 (≈ 10.6 µM)	0.78 (≈ 1.33 µM)	0.78 (≈ 1.33 µM)	0.78 (≈ 1.33 µM)	1.56 (≈ 2.65 µM)	0.78 (≈ 1.33 µM)	0.39 (≈ 0.664 µM)	Nc1ccc[n+](CC2=C(C(=O)[O-])N3C(=O)C(NC(=O)/C(=N\OCc4csc(N)n4)c4csc(N)n4)[C@H]3SC2)c1 (stereo partly drawn) [Example 19, (Z)-7-{α-(2-amino-4-thiazolyl)-α-[(2-amino-4-thiazolyl)methoxyimino]acetamido}-3-(3-amino-1-pyridiniomethyl)-3-cephem-4-carboxylate]
≤ 0.2	12.5	12.5	0.39	25	1.56	6.25	1.56	3.13	6.25	6.25	Nc1nc(CO/N=C(\C(=O)NC2C(=O)N3C(C(=O)[O-])=C(C[n+]4cccc(C(=O)NCC(=O)O)c4)CSC23)c2csc(N)n2)cs1 (stereo not drawn) [Example 20, (Z)-7-{α-(2-amino-4-thiazolyl)-α-[(2-amino-4-thiazolyl)methoxyimino]acetamido}-3-{3-[N-(carboxylatemethyl)carbamoyl]-1-pyridiniomethyl}-3-cephem-4-carboxylate mono-sodium salt]
≤ 0.2	0.39 (≈ 0.664 µM)	1.56 (≈ 2.65 µM)	≤ 0.2	6.25 (≈ 10.6 µM)	0.39 (≈ 0.664 µM)	0.39 (≈ 0.664 µM)	0.39 (≈ 0.664 µM)	0.78 (≈ 1.33 µM)	0.39 (≈ 0.664 µM)	≤ 0.2	Nc1cc[n+](CC2=C(C(=O)[O-])N3C(=O)C(NC(=O)/C(=N\OCc4csc(N)n4)c4csc(N)n4)[C@H]3SC2)cc1 (stereo partly drawn) [Example 21, 7-{α-(2-amino-4-thiazolyl)-α-[(2-amino-4-thiazolyl)methoxyimino]acetamido}-3-(4-amino-1-pyridiniomethyl)-3-cephem-4-carboxylate]
0.78 (≈ 1.24 µM)	3.13 (≈ 4.97 µM)	6.25 (≈ 9.93 µM)	≤ 0.2	12.5 (≈ 19.9 µM)	1.56 (≈ 2.48 µM)	1.56 (≈ 2.48 µM)	1.56 (≈ 2.48 µM)	3.13 (≈ 4.97 µM)	1.56 (≈ 2.48 µM)	1.56 (≈ 2.48 µM)	Nc1nc(CO/N=C(\C(=O)NC2C(=O)N3C(C(=O)[O-])=C(C[n+]4cccc(CNC=O)c4)CS[C@H]23)c2csc(N)n2)cs1 (stereo partly drawn) [Example 22, (Z)-7-{α-(2-amino-4-thiazolyl)-α-[(2-amino-4-thiazolyl)methoxyimino]acetamido}-3-(3-formamidomethyl-1-pyridiniomethyl)-3-cephem-4-carboxylate]
0.39 (≈ 0.617 µM)	3.13 (≈ 4.96 µM)	3.13 (≈ 4.96 µM)	≤ 0.2	6.25 (≈ 9.89 µM)	0.78 (≈ 1.23 µM)	3.13 (≈ 4.96 µM)	0.39 (≈ 0.617 µM)	1.56 (≈ 2.47 µM)	6.25 (≈ 9.89 µM)	0.39 (≈ 0.617 µM)	Nc1nc(CON=C(C(=O)NC2C(=O)N3C(C(=O)[O-])=C(C[n+]4ccc(C(=O)NO)cc4)CS[C@H]23)c2csc(N)n2)cs1 (stereo partly drawn) [Example 23, (Z)-7-{α-(2-amino-4-thiazolyl)-α-[(2-amino-4-thiazolyl)methoxyimino]acetamido}-3-(4-hydroxycarbamoyl-1-pyridiniomethyl)-3-cephem-4-carboxylate]
